Where “and” joins values, the source holds several entries; their conditions need not be identical. Equal values may be shown once.
How the values were obtained:
[1] = test system: ABL1(T315I)-phosphorylated
hBChE = hBChE (Homo sapiens, UniProt P06276); test: biochemical
Protocol: The inhibitory potencies of the compounds against the ChEs were determined using the method of Ellman. […] The final content of DMSO was always 1% [v/v]. […] The initial velocities in the presence (v i ) and absence (v 0) of the test compounds were calculated. The inhibitory potencies were expressed as the residual activities, according to RA = (v i – b)/(v 0 – b), where b is the blank value using phosphate buffer without ChEs. For IC50 determinations, at least seven different concentrations for each compound were used. The IC50 values were obtained by plotting the residual ChE activities against the applied inhibitor concentrations, with the experimental data fitted to a four-parameter logistic function (GraphPad Prism 10.0).

[2] = test system: mice (locomotor activity); test: Locomotor activity test; settings: 10 mg/kg i.p.
Description: The mice had unlimited access to food and water prior to the experiment. Specified conditions for the maintenance of mice were ensured throughout the experiment, including tree bedding (Transwior, Poland) and cage enrichment (tunnels, nesting material, wooden igloos, etc.). For behavioral tests, the mice were selected randomly; each group consisted of 7–10 mice. […] After in vivo tests, the animals were immediately euthanized, and their tissues were collected and stored for further ex vivo testing.
They were administered intraperitoneally (i.p.) 60 min before the acquisition trial of the PA, NOR, and MWM tasks.
The locomotor activity test was performed using activity cages (40 cm × 40 cm × 30 cm, supplied with IR beam emitters) (Activity Cage 7441, Ugo Basile, Italy) connected to a counter for the recording of light-beam interrupts. […] The animals’ movements (i.e., the number of light-beam crossings) were counted during the next 60 min of the test. Before the experiment, the mice were habituated to activity cages for 15 min.

[3] = test system: JAK2(JH1domain-catalytic)
[4] = Pharmacokinetic study in mice; settings: for Cmax / MRT / Tmax / k el / Kp / AUC / AUC(0-t) / CL/F / Vd/F: male, CD-1, mouse, ip, 10 mg/kg; for Kp: brain/serum
Protocol: In this study, male CD-1 mice weighing 27–34 g housed in conditions of constant temperature with a 12:12 h light-dark cycle with free access to food and water were used. Both tested and reference compounds were suspended in 1% Tween in water for injection (Polpharma, Poland) and administered intraperitoneally (i.p.). The mice were sacrificed by decapitation under isoflurane anesthesia at different time points following compound administration. Brains were harvested at the same time points. Blood was allowed to clot at room temperature for 20 min, and serum was separated by centrifugation at 8 000g (Eppendorf MiniSpin centrifuge, Germany) for 10 min. All samples were stored at −80 °C until analysis.
The analytical workflow employed a Sciex QTRAP 4500 triple quadrupole mass spectrometer interfaced with an Exion LC AC HPLC system (Danaher Corporation, USA). Chromatographic separation was achieved on an XBridge C18 column (3 × 50 mm, 5 μm; Waters, USA), utilizing a mobile phase composed of acetonitrile and water both containing 0.1% formic acid. The column temperature was maintained at 40 °C, and a gradient elution protocol (Table S10) was implemented to ensure optimal analyte resolution and retention times. Mass spectrometric detection was conducted in unit resolution mode, with ion transitions specified in Table S11. […] Valsartan served as the internal standard and was monitored at m/z 436 → 207 (collision energy = 42 eV). Positive electrospray ionization (ESI+) was employed to enhance detection sensitivity. Ion path parameters (Table S11) were optimized via direct infusion of analyte solutions (7 μL/min) using a syringe pump. The optimized source conditions included an ion spray voltage of 5500 V, a source temperature of 450 °C, curtain gas pressure at 20 psi, and medium collision gas pressure. […] No significant matrix effects or stability concerns were observed during routine sample analysis. Data acquisition and processing were carried out using Analyst software version 1.7.
Serial dilutions were performed to generate working solutions ranging from 0.01 to 20 μg/mL, corresponding to final calibration concentrations of 0.001–2 μg/mL. For calibration curve construction, 5 μL of each working solution was spiked into 45 μL of the relevant biological matrix (serum or brain homogenate) and vortexed for 10 s. Sample preparation involved protein precipitation, in a 1:3 (v/v) ratio, using acetonitrile containing 0.1% formic acid and the internal standard. The mixtures were agitated for 10 min using an IKA Vibrax VXR shaker (Germany), followed by centrifugation at 8000 × g for 5 min (Eppendorf miniSpin, Germany). The resulting supernatants were transferred to chromatographic vials for analysis.
Brain tissues were homogenized in distilled water at a 1:4 (w/v) ratio using an ULTRA-TURRAX T10 basic homogenizer (IKA, Germany). Aliquots of brain homogenate or serum (50 μL) were subjected to protein precipitation in a 1:3 (v/v) ratio with acetonitrile containing 0.1% formic acid and the internal standard. The mixtures were agitated for 10 min using an IKA Vibrax VXR shaker (Germany), followed by centrifugation at 8000 × g for 5 min (Eppendorf miniSpin, Germany). The resulting supernatants were directly transferred to chromatographic vials for analysis. In cases where analyte concentrations in serum exceeded 20 μg/mL, samples were diluted with blank matrix prior to the deproteinization step. The autosampler was maintained at 15 °C, and a 1 μL aliquot was injected onto the analytical column.
Pharmacokinetic parameters were estimated using the noncompartmental analysis (NCA). The maximum concentration (C max) and the time to reach maximum concentration (t max) in serum and brain were obtained directly from the concentration versus time data.

[5] = hBChE IC50 ± SEM, two independent experiments, each in triplicate
[6] = in vitro hBChE IC50, IC50 expressed as concentration in ng/mL

hBChE, sequence (P06276 29-602): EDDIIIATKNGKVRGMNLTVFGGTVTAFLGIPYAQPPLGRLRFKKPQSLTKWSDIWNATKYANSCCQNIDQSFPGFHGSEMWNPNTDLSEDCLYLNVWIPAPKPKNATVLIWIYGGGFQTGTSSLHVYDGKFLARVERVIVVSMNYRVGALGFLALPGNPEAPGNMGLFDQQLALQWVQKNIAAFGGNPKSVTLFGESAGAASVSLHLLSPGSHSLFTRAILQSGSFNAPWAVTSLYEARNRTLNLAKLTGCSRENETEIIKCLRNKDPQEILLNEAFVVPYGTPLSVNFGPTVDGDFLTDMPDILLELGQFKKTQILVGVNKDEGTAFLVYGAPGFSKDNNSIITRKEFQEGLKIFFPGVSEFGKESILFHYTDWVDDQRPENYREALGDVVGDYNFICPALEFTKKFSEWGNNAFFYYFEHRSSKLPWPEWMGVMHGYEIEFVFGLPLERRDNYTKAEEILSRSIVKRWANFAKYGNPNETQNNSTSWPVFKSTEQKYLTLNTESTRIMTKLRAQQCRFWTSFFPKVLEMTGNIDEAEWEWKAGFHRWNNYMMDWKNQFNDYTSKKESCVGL

CC(C)Cn1ncc2cc(Cc3ccc(F)cc3F)c(C(=O)NCCN(C)C)cc21 [Compound 94, 5-(2,4-Difluorobenzyl)-N-(2-(dimethylamino)ethyl)-1-isobutyl-1H-indazole-6-carboxamide]
RA @ 1000nM (PIM2): 100% | RA @ 10000nM (PIM2): 100% | RA @ 1000nM (FAK): 96% | RA @ 10000nM (FAK): 89% | RA @ 1000nM [1]: 93% | RA @ 10000nM [1]: 90% | RA @ 1000nM (CDK7): 79% | RA @ 10000nM (CDK7): 86% | RA @ 1000nM (CHEK1): 100% | RA @ 10000nM (CHEK1): 100% | RA @ 1000nM (LCK): 100% | RA @ 10000nM (LCK): 97% | RA @ 1000nM (AXL): 97% | RA @ 10000nM (AXL): 89% | RA @ 1000nM (EPHA2): 97% | RA @ 10000nM (EPHA2): 100% | IC50 (hBChE; [5]): 652 ± 112 nM | IC50 (hBChE; [6]): 651 nM | RA @ 1000nM (PDPK1): 88% | RA @ 10000nM (PDPK1): 74% | RA @ 1000nM (MAP3K4): 49% | RA @ 10000nM (MAP3K4): 100% | RA @ 1000nM (CDK3): 100% | RA @ 10000nM (CDK3): 1.3% | motor adverse effects (locomotor activity test) [2]: no motor adverse effects | RA @ 1000nM (YANK3): 100% | RA @ 10000nM (YANK3): 100% | RA @ 1000nM (p38β): 72% | RA @ 10000nM (p38β): 15% | IC50 (p38α MAPK): 377 nM and 156 ng/mL | RA @ 1000nM [3]: 98% | RA @ 10000nM [3]: 100% | RA @ 1000nM (FGFR2): 95% | RA @ 10000nM (FGFR2): 100% | RA @ 1000nM (AURKA): 96% | RA @ 10000nM (AURKA): 93% | RA @ 1000nM (BRAF(V600E)): 100% | RA @ 10000nM (BRAF(V600E)): 100% | RA @ 1000nM (MLK1): 100% | RA @ 10000nM (MLK1): 100% | RA @ 1000nM (MKNK1): 100% | RA @ 10000nM (MKNK1): 100% | RA @ 1000nM (ALK): 93% | RA @ 10000nM (ALK): 83% | RA @ 1000nM (GSK3B): 91% | RA @ 10000nM (GSK3B): 97% | elimination half-life in brain compared to serum ([4]; 10 mg/kg i.p., mice): over 2 fold | AUC0‑∞ ([4]; brain, 10 mg/kg i.p., mice): 50863.30 ng·min/mL(g) | AUC0–t ([4]; brain, 10 mg/kg i.p., mice): 48459.19 ng·min/mL(g) | t0.5λz ([4]; brain, 10 mg/kg i.p., mice): 210.94 min | Cmax ([4]; brain): 658 ng/g | MRT ([4]; brain): 1.71 h | Tmax ([4]; brain): 15 min | k el ([4]; brain): 5.5e-05 s⁻¹ | Kp [4]: 1.58 | AUC ([4]; serum): 536 ng·h/mL | AUC(0-t) ([4]; serum): 532 ng·h/mL | CL/F ([4]; serum): 310 mL/min/kg | Cmax ([4]; serum): 946 ng/mL | MRT ([4]; serum): 0.897 h | Tmax ([4]; serum): 5 min | Vd/F ([4]; serum): 46 L/kg | k el ([4]; serum): 0.000112 s⁻¹ | AUC0–t ratio compound 94 to compound 95 ([4]; serum, 10 mg/kg i.p., mice): 0.53 | t0.5λz ([4]; serum, 10 mg/kg i.p., mice): 102.50 min | RA @ 1000nM (KIT(V559D,T670I)): 100% | RA @ 10000nM (KIT(V559D,T670I)): 100% | RA @ 1000nM (PDGFRA): 96% | RA @ 10000nM (PDGFRA): 76% | RA @ 1000nM (PIK3C2B): 90% | RA @ 10000nM (PIK3C2B): 82% | RA at 100 µM (hAChE): 69 ± 4% | RA @ 1000nM (FLT3): 100% | RA @ 10000nM (FLT3): 90% | RA @ 1000nM (CDK2): 82% | RA @ 10000nM (CDK2): 97% | RA @ 1000nM (AURKB): 84% | RA @ 10000nM (AURKB): 68% | RA @ 1000nM (ERBB4): 85% | RA @ 10000nM (ERBB4): 83%

CN(C)CCNC(=O)c1cc2c(cnn2CC2CCCCC2)cc1Cc1ccc(F)cc1F [Compound 95, 1-(Cyclohexylmethyl)-5-(2,4-difluorobenzyl)-N-(2-(dimethylamino)ethyl)-1H-indazole-6-carboxamide]
RA @ 1000nM (PIM2): 100% | RA @ 10000nM (PIM2): 100% | RA @ 1000nM (FAK): 92% | RA @ 10000nM (FAK): 94% | RA @ 1000nM [1]: 72% | RA @ 10000nM [1]: 91% | RA @ 1000nM (CDK7): 88% | RA @ 10000nM (CDK7): 77% | RA @ 1000nM (CHEK1): 100% | RA @ 10000nM (CHEK1): 100% | RA @ 1000nM (LCK): 94% | RA @ 10000nM (LCK): 100% | RA @ 1000nM (AXL): 84% | RA @ 10000nM (AXL): 83% | RA @ 1000nM (EPHA2): 100% | RA @ 10000nM (EPHA2): 100% | IC50 (hBChE; [5]): 772 ± 57 nM | IC50 (hBChE; [6]): 770 nM | RA @ 1000nM (PDPK1): 100% | RA @ 10000nM (PDPK1): 87% | RA @ 1000nM (MAP3K4): 100% | RA @ 10000nM (MAP3K4): 60% | RA @ 1000nM (CDK3): 100% | RA @ 10000nM (CDK3): 100% | motor adverse effects (locomotor activity test) [2]: no motor adverse effects | RA @ 1000nM (YANK3): 100% | RA @ 10000nM (YANK3): 100% | RA @ 1000nM (p38β): 84% | RA @ 10000nM (p38β): 18% | IC50 (p38α MAPK): 191 nM and 87 ng/mL | RA @ 1000nM [3]: 100% | RA @ 10000nM [3]: 100% | RA @ 1000nM (FGFR2): 100% | RA @ 10000nM (FGFR2): 100% | RA @ 1000nM (AURKA): 95% | RA @ 10000nM (AURKA): 93% | RA @ 1000nM (BRAF(V600E)): 98% | RA @ 10000nM (BRAF(V600E)): 100% | RA @ 1000nM (MLK1): 100% | RA @ 10000nM (MLK1): 90% | RA @ 1000nM (MKNK1): 100% | RA @ 10000nM (MKNK1): 100% | RA @ 1000nM (ALK): 62% | RA @ 10000nM (ALK): 92% | RA @ 1000nM (GSK3B): 100% | RA @ 10000nM (GSK3B): 80% | AUC0‑∞ ([4]; brain, 10 mg/kg i.p., mice): 51082.15 ng·min/mL(g) | AUC0–t ([4]; brain, 10 mg/kg i.p., mice): 49811.92 ng·min/mL(g) | t0.5λz ([4]; brain, 10 mg/kg i.p., mice): 89.51 min | Cmax ([4]; brain): 343 ng/g | MRT ([4]; brain): 2.14 h | Tmax ([4]; brain): 15 min | k el ([4]; brain): 0.000128 s⁻¹ | Kp [4]: 0.83 | AUC ([4]; serum): 1030 ng·h/mL | AUC(0-t) ([4]; serum): 999 ng·h/mL | CL/F ([4]; serum): 160 mL/min/kg | Cmax ([4]; serum): 617 ng/mL | MRT ([4]; serum): 1.97 h | Tmax ([4]; serum): 15 min | Vd/F ([4]; serum): 23.4 L/kg | k el ([4]; serum): 0.000115 s⁻¹ | t0.5λz ([4]; serum, 10 mg/kg i.p., mice): 100.15 min | RA @ 1000nM (KIT(V559D,T670I)): 47% | RA @ 10000nM (KIT(V559D,T670I)): 94% | RA @ 1000nM (PDGFRA): 92% | RA @ 10000nM (PDGFRA): 92% | RA @ 1000nM (PIK3C2B): 91% | RA @ 10000nM (PIK3C2B): 91% | RA at 100 µM (hAChE): 53 ± 1% | RA @ 1000nM (FLT3): 100% | RA @ 10000nM (FLT3): 100% | RA @ 1000nM (CDK2): 99% | RA @ 10000nM (CDK2): 100% | RA @ 1000nM (AURKB): 99% | RA @ 10000nM (AURKB): 71% | RA @ 1000nM (ERBB4): 93% | RA @ 10000nM (ERBB4): 81%
